Earlier results as cited in patent US20060165781A1, “Orally disintegrating tablets and process for obtaining them” (priority 2002, published 2006).

Conditions: 5 g in 150 mL of water at 20° C.

- Time to dissolve in water: approximately 5 s
Compound: OC[C@@H](O)[C@@H](O)[C@H](O)[C@H](O)CO [Spray-dried mannitol, mannitol]
